The values that follow come from patent publication US8299089B2, “Multi-arm polymeric conjugates of 7-ethyl-10-hydroxycamptothecin for treatment of breast, colorectal, pancreatic, ovarian and lung cancers” (priority 2006, dated 2012).

Series [1] has as its system Colo 205. Nature of the series: In vitro cytotoxicity, MTS assay, Colo 205. In kind it is cell-based. As to the method:
(§1) In Table 2, the cytotoxicity (μM of each compound that results in an IC50) provides an indication of the in vitro anti-tumor potency of each compound. This study was used to determine the effect of PEGylation of four-arm PEGylated 7-ethyl-10-hydroxycamptothecin conjugates. […] Cells were incubated with drugs for 72 hours at 37° C. Following incubation, MTS dye was added and formation of a colored product (formazan) was measured at 490 nm.

Series [2] deals with HT29. Nature of the series: In vitro cytotoxicity, MTS assay, HT29. In kind it is cell-based. The procedure:
as §1
(Formazan colour is commonly taken as a measure of viable cells.)

The test system of series [3] is A549. Nature of the series: In vitro cytotoxicity, MTS assay, A549. In kind it is cell-based. The procedure: as §1
Series [4] has as its system OVCAR-3. Nature of the series: In vitro cytotoxicity, MTS assay, OVCAR-3. The class given is cell-based. The procedure:
as §1

Series [5] has as its system human mammary carcinoma (MX-1). Nature of the series: Multiple dose efficacy in MX-1 breast tumor xenograft mouse model. The note with it: i.v. 5 mg/kg/dose (q2d×6), day 31. In kind it is in vivo, nude mice. The procedure: The mice were dosed 5 mg/kg/day […] (every 2 days [q×2d]×6). Mouse weight and tumor sizes were monitored up to the 31st day after the first dose administration and subsequent administrations.

Series [6] in a line: Hydrolysis / 7-ethyl-10-hydroxycamptothecin release in human plasma. The class given is in vitro ADME. The note with it: for Doubling Time in Plasma, Human: 7-ethyl-10-hydroxycamptothecin formation rate from conjugates; for t1/2 in Human Plasma: PEG conjugate half life.
Text: The aqueous stability and hydrolysis properties in rat and human plasma were monitored using UV based HPLC methods.
A short description of series [7]: 7-ethyl-10-hydroxycamptothecin release in mouse plasma. The class given is in vitro ADME. The note with it: 7-ethyl-10-hydroxycamptothecin formation rate from conjugates.
Series [8] in a line: 7-ethyl-10-hydroxycamptothecin release in rat plasma. The note with it: 7-ethyl-10-hydroxycamptothecin formation rate from conjugates. In kind it is in vitro ADME.
Series [9] is described as follows: Solubility in aqueous saline solution. In kind it is physicochemical.
Series [10] deals with PANC-1. Nature of the series: In vitro cytotoxicity, MTS assay, PANC-1. The note with it: Table 2; PANC-1, 72 hours; Compound 9 in 7-ethyl-10-hydroxycamptothecin equivalents; average ± SD (n = 3). The class given is cell-based. The procedure: as §1
The subject of series [11] is MIA PaCa-2. Nature of the series: In vitro cytotoxicity, MTS assay, MIA PaCa-2. In kind it is cell-based. The conditions noted are these: Table 2; MIA PaCa-2, 72 hours; Compound 9 in 7-ethyl-10-hydroxycamptothecin equivalents; no SD = average of two replicates. As to the method: as §1
For series [12], the system named is ASPC-1. Nature of the series: In vitro cytotoxicity, MTS assay, ASPC-1. In kind it is cell-based. The note with it: Table 2; ASPC-1, 72 hours; Compound 9 in 7-ethyl-10-hydroxycamptothecin equivalents; average ± SD (n = 3). As to the method: as §1
For series [13], the system named is BxPC-3. Nature of the series: In vitro cytotoxicity, MTS assay, BxPC-3. The class given is cell-based. The note with it: Table 2; BxPC-3, 72 hours; Compound 9 in 7-ethyl-10-hydroxycamptothecin equivalents; average ± SD (n = 3). As to the method: as §1
The test system of series [14] is OV90. Nature of the series: In vitro cytotoxicity, MTS assay, OV90. The class given is cell-based. The conditions noted are these: Table 2; OV90, 72 hours; Compound 9 in 7-ethyl-10-hydroxycamptothecin equivalents; average ± SD (n = 3). The procedure:
as §1

Series [15] deals with OVCAR-8. Nature of the series: In vitro cytotoxicity, MTS assay, OVCAR-8. In kind it is cell-based. The conditions noted are these: Table 2; OVCAR-8, 72 hours; Compound 9 in 7-ethyl-10-hydroxycamptothecin equivalents; average ± SD (n = 3). The procedure: as §1
The test system of series [16] is A2780. Nature of the series: In vitro cytotoxicity, MTS assay, A2780. The class given is cell-based. The note with it: Table 2; A2780, 72 hours; Compound 9 in 7-ethyl-10-hydroxycamptothecin equivalents; average ± SD (n = 3). The procedure:
as §1

Series [17] relates to SK-0V-3. Nature of the series: In vitro cytotoxicity, MTS assay, SK-0V-3. The class given is cell-based. The conditions noted are these: Table 2; SK-0V-3, 72 hours; Compound 9 in 7-ethyl-10-hydroxycamptothecin equivalents; average ± SD (n = 3). As to the method:
as §1

The term IC50 denotes the concentration that inhibits the measured activity by half. As a reminder, the T/C is the result in the treated group divided by that in the control group, in per cent. Usually TGI stands for the reduction of tumour growth relative to the control group. Low readings indicate little slowing of growth, high ones much slowing of growth. For the compound “^40K4arm-PEG-Sar-(20)-(7-ethyl-10-hydroxycamptothecin) [Compound 23]”, the IC50 in series [1] (Table 3, Colo 205 (colorectal)) stood at 40 nM. The IC50 in series [2] (Table 3, HT29 (colorectal)) came out at 270 nM. In series [3] (Table 3, A549 (lung)), 11000 nM corresponded to half-maximal inhibition (IC50). In series [4] (Table 3, OVCAR-3 (ovarian)), this compound gave an IC50 of 170 nM. Moreover, in [5], the “Chg in TV ± SD” value is given as −87 ± 12%, the Cures came to 100%, the F/I is on record as 13% and the “Mean TV ± SD” value stood at 12 ± 10 mm^3. Also, in [5], the “Median TV” value was 14.6 mm^3, the Regressions amounted to 100%, the Survival turned out to be 100% and the T/C was determined as 1.9%. In addition, the TGI in [5] is 99%. Moreover, in series [6], the “Doubling Time in Plasma, Human” value was determined as 28.8 min and the “t1/2 in Human Plasma” value is recorded as 19.0 min. The “Doubling Time in Plasma, Mouse” value in series [7] worked out at 43.4 min. Also, the “Doubling Time in Plasma, Rat” value in series [8] is 481 min.
On to “^40k4arm-PEG-Ala-(20)-(7-ethyl-10-hydroxycamptothecin) [Compound 12]”, for which, in series [1] (Table 3, Colo 205 (colorectal)), the IC50 came to 30 nM. The same compound came in with an IC50 in [2] (Table 3, HT29 (colorectal)) of 160 nM. The IC50 in series [3] (Table 3, A549 (lung)) amounted to 4400 nM. The compound also registered an IC50 in series [4] (Table 3, OVCAR-3 (ovarian)) of 140 nM. For the same compound, in series [5], the “Chg in TV ± SD” value is given as −91 ± 11%, the Cures came to 67%, the F/I was found to be 10% and the “Mean TV ± SD” value is reported as 10 ± 11 mm^3. Further, in series [5], the “Median TV” value is given as 9.6 mm^3, the Regressions amounted to 100%, the Survival stood at 100% and the T/C is 1.2%. In series [5], this compound showed a tumour growth inhibition (TGI) of 99%. Further, the “Solubility in Saline” value in series [9] was found to be 121 mg/mL. Moreover, in [6], the “Doubling Time in Plasma, Human” value was determined as 51.9 min and the “t1/2 in Human Plasma” value is 12.5 min. In addition, in series [7], the “Doubling Time in Plasma, Mouse” value was determined as 45.8 min. Further, the “Doubling Time in Plasma, Rat” value in [8] was found to be 753 min.
Turning to `CCc1c2c(nc3ccc(O)cc13)-c1cc3c(c(=O)n1C2)COC(=O)[C@]3(O)CC` [7-ethyl-10-hydroxycamptothecin], the IC50 in [1] (Table 2, Colo 205, 72 hours, Compound 9 in 7-ethyl-10-hydroxycamptothecin equivalents, average ± SD (n = 3)) came to 200 ± 200 nM; in series [1] (Table 3, Colo 205 (colorectal)) it was 80 nM; in series [2] (Table 2, HT29, 72 hours, Compound 9 in 7-ethyl-10-hydroxycamptothecin equivalents, average ± SD (n = 3)), 100 ± 40 nM; in series [2] (Table 3, HT29 (colorectal)), 80 nM; in series [3] (Table 2, A549, 72 hours, Compound 9 in 7-ethyl-10-hydroxycamptothecin equivalents, average ± SD (n = 3)), 1000 ± 100 nM; in series [10] it was 560 ± 380 nM. Also, the IC50 in series [11] was 180 nM; in [12], 640 ± 130 nM; in series [13], 540 ± 580 nM; in series [4] (Table 2, OVCAR-3, 72 hours, Compound 9 in 7-ethyl-10-hydroxycamptothecin equivalents, average ± SD (n = 3)) it was 100 ± 20 nM; in series [14], 100 ± 20 nM; in [15] it was 30 ± 10 nM. In addition, the 50% inhibitory concentration (IC50) in series [16] is 20 ± 10 nM; in [17] it was 200 ± 100 nM. Further, the “Solubility in Saline” value in series [9] is listed as “^a7-ethyl-10-hydroxycamptothecin is not soluble in saline”.
In [1] (Table 3, Colo 205 (colorectal)), “^40k4arm-PEG-Met-(20)-(7-ethyl-10-hydroxycamptothecin) [Compound 18]” came in with an IC50 of 30 nM. In series [2] (Table 3, HT29 (colorectal)), this compound registered an IC50 of 140 nM. This compound also showed an IC50 in series [3] (Table 3, A549 (lung)) of 1600 nM. Further, the IC50 in [4] (Table 3, OVCAR-3 (ovarian)) worked out at 130 nM. For the same compound, in series [5], the “Chg in TV ± SD” value is −94 ± 7%, the Cures is given as 100%, the F/I is 7.8% and the “Mean TV ± SD” value is listed as 8 ± 9 mm^3. In addition, in series [5], the “Median TV” value was determined as 5.6 mm^3, the Regressions turned out to be 100%, the Survival came to 100% and the T/C came to 0.7%. In series [5], this compound gave a TGI of 99%. In series [9], the “Solubility in Saline” value is 142 mg/mL. Besides, in series [6], the “Doubling Time in Plasma, Human” value was 22.2 min and the “t1/2 in Human Plasma” value amounted to 26.8 min. The “Doubling Time in Plasma, Mouse” value in [7] is reported as 41.9 min. The “Doubling Time in Plasma, Rat” value in [8] came to 1920 min.
